One test deals with T1, GST-Xa-hAAK1 (Homo sapiens, UniProt Q2M2I8).
T1 construct: made in house
In words: AAK1 Kinase Assay (Caliper LabChip, fluoresceinated peptide substrate). The test is classed as biochemical. To be noted: ATP 22 μM. The protocol: The assays were performed in U-bottom 384-well plates. The final assay volume was 30 μl prepared from 15 μl additions of enzyme and substrates (fluoresceinated peptide (5-FAM)-Aha-[…]-NH2 and ATP) and test compounds in assay buffer (10 mM Tris-HCL pH 7.4, 10 mM MgCl2, 0.01% Tween-20 and 1.0 mM DTT). The reactions were initiated by the combination of bacterially expressed, GST-Xa-hAAK1 with substrates and test compounds. The reactions were incubated at room temperature for 3 hours and terminated by adding 60 μl of 35 mM EDTA buffer to each sample. The reactions were analyzed on the Caliper LabChip 3000 (Caliper, Hopkinton, Mass.) by electrophoretic separation of the fluorescent substrate and phosphorylated product. […] The final concentration of reagents in the assays are ATP, 22 μM; (5-FAM)-Aha-[…]-NH2, 1.5 μM; GST-Xa-hAAK1, 3.5 nM; and DMSO, 1.6%. Dose response curves were generated to determine the concentration required inhibiting 50% of kinase activity (IC50). Compounds were dissolved at 10 mM in dimethylsulfoxide (DMSO) and evaluated at eleven concentrations. IC50 values were derived by non-linear regression analysis.

The target of the next test is T2, AAK1 (full length human) (Homo sapiens, UniProt Q2M2I8).
T2 construct: HA; expressed in transfected cells; host or cells: HEK293F
T2 sequence (Q2M2I8 whole entry): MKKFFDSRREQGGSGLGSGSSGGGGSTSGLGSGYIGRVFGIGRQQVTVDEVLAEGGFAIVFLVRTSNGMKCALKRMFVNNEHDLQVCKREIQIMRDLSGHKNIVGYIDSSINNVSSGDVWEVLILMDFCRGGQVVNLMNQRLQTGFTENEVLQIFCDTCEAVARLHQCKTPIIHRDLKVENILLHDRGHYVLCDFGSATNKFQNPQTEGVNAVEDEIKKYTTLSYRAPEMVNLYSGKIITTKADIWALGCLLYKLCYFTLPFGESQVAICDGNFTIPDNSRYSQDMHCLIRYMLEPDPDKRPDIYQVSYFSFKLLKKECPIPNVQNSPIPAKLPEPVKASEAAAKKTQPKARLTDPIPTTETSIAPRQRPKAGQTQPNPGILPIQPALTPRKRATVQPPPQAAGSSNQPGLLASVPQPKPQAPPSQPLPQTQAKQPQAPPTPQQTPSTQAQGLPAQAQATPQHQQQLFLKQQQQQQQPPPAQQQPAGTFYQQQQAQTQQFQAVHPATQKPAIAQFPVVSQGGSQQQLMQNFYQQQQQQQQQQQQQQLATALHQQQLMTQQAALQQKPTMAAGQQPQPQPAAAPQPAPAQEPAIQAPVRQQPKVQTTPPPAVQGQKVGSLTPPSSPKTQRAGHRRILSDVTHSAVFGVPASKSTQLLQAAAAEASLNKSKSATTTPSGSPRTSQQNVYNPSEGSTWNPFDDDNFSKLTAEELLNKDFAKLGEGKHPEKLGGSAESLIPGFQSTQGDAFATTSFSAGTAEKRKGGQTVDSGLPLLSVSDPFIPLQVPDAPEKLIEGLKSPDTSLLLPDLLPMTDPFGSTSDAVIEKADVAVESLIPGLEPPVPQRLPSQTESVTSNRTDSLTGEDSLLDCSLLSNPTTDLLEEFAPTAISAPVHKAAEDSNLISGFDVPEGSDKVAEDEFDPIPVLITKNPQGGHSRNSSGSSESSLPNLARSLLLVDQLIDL
In words: HEK281 Cell-Based Assay (HEK293F cells transfected with AAK1 and AP2M1; phospho-mu2 Western blot). As to conditions: 3 h. Here is the method:
HEK293F cells were cultured in media containing DMEM (Gibco, cat. #11965), 10% FBS (SAFC Biosciences, cat. #12103C), 1× GPS (glutamine, penicillin and streptomycin). On day one, cells were plated on a 10 cm dish so that they are ˜80% confluent at time of transfection. Roughly 12 million cells were in a 10 cm dish at time of transfection. On day two, each dish was transfected with 48 ug DNA and 144 μl Lipofectamine 2000 (Invitrogen, cat. #11668-019). The DNA was comprised of a mixture (per 10 cm dish) containing 3 ug AAK1/HA/pIRES (full length human, NCBI accession no. NP_055726.2), 45 μg Flag/AP2MI/pcDNA (full length human), and 1.5 ml OPTI-MEM. The Lipofectamine 2000 is made up of a mixture (per 10 cm dish) containing 144 μl Lipofectamine 2000 and 1.5 ml OPTI-MEM. Each mixture was transferred to individual 15 ml tubes and incubated at RT for 5 minutes, and then the two mixes were combined and incubated at RT for 20 minutes. Growth media was then aspirated from each 10 cm plate and replaced with 10 ml of DMEM+10% FBS (no GPS). Finally, 3 ml DNA/Lipofectamine mix was added to each 10 cm dish and mix gently followed by incubate of plate overnight at 37° C. and 5% CO2.
On day three, compounds were diluted in 100% DMSO at 1000× final concentration, followed by 3-fold serial dilutions for a total of 5 concentrations tested. Four compounds were tested per 10 cm dish. One ul of each compound dilution was then pipetted into a deep-well, 96-well plate, followed by addition of 500 μl DMEM+0.5% FBS into each well for a 2× final concentration of each compound. Cells were resuspended in a 10 cm dish by simple pipetting (HEK293 cells come off the plate that easy at this point) and then transferred to a 50 ml conical tube and pelleted by centrifugation at 1000 rpm for 5 min. Cell pellets were then resuspended in 2.75 ml DMEM+0.5% FBS per 10 cm dish and 100 μl of cell suspension transferred into each well of 96-well TC plate. Finally, 100 μl of 2× compound diluted in DMEM+0.5% FBS was then added into wells containing cell suspension for a 1× final concentration. Plates were then incubated at 37° C. and 5% CO2 for 3 hours followed by transferring of cell suspensions from each well into 12-tube PCR strips. The PCR strips were spun in a tip rack at 1000 rpm for 5 minutes to pellet cells and media was then removed by pipetting without disturbing the cell pellet.
To prepare for Western Blot analysis, cell pellets were resuspend in 40 ul 1× LDS-PAGE sample buffer (Invitrogen, cat. #NP0008)+2× Halt phophatase and protease inhibitor cocktail (Thermo Scientific, cat. #1861284), followed by sonicating each with microtip sonicator set at 5 for 8-10 seconds. Five ul of 10× NuPage Sample Reducing Agent (with […]) was to each sample followed by heat denaturing at 70C for 10 min on PCR machine. A total of 10 μl per sample was loaded into each lane of a 4-20% Tris-Glycine Criterion 26-well gel (Biorad, cat. #345-0034) for the phospho-mu2 blot and 10 μl per lane in a 4-12% Bis-Tris (+MES buffer) NuPAGE 26-well gel (Invitrogen, cat. #WG1403BX10) for the mu2 blot. For controls, 2 ng of phospho-mu2 or 20 ng mu2/Flag proteins were loaded in the last well of each gel. After SDS-PAGE, samples on each gel were transferred to PVDF membrane using an iBlot and membranes were blocked for one hour in TBST+5% milk, followed by wash 3× for 5-10 min with TBST. Criterion gels were probed with rabbit anti-phospho-mu2 (1:5000; a rabbit polyclonal antibody produced by New England Peptide and affinity purified at Lexicon) in TBST+5% BSA, whereas, NuPAGE gels were probed with mouse anti-Flag (1:500; Sigma, cat. #F1804) in TBST+5% milk, and these primary antibodies were incubated overnight at 4° C. on a rocker. […]
On the technique in general: A western blot detects proteins with antibodies after separation by electrophoresis.

For orientation: IC50 means the concentration that gives 50% inhibition.

T1 sequence (Q2M2I8 whole entry): as above

As to `CC(=O)Nc1cc2c(cn1)COc1c-2ccc(OC[C@@H](N)CC(C)C)c1C` [Example 35, (S)-N-(8-((2-amino-4-methylpentyl)oxy)-7-methyl-5H-chromeno[3,4-c]pyridin-2-yl)acetamide], the IC50 at GST-Xa-hAAK1 (listed as IC50 ranges) and against AAK1 (full length human) (listed as IC50 ranges) was less than 1 nM in each case.

For the compound `CC(C)C[C@H](N)COc1ccc2c(c1)OC(C)c1cnccc1-2` (single isomer, unassigned) [Example 6a], the IC50 at GST-Xa-hAAK1 (numeric values) is 27 nM; against AAK1 (full length human) (numeric values), 25 nM.

The values above are taken from US8703953B2, “Aryl ether-base kinase inhibitors” (Bristol-Myers Squibb Company, priority 2012, dated 2014).
